Experimental data published in patent publication US9694016B2 (Novartis AG, priority 2013, dated 2017).

molecular target: b-Raf (V600E) (Homo sapiens (Human), UniProt P15056, V600E); conditions: read-out: b-Raf IC-50; AlphaScreen, 60 min pre-incubation, reaction 3 hours at room temperature
Sequence (P15056 whole entry V600E): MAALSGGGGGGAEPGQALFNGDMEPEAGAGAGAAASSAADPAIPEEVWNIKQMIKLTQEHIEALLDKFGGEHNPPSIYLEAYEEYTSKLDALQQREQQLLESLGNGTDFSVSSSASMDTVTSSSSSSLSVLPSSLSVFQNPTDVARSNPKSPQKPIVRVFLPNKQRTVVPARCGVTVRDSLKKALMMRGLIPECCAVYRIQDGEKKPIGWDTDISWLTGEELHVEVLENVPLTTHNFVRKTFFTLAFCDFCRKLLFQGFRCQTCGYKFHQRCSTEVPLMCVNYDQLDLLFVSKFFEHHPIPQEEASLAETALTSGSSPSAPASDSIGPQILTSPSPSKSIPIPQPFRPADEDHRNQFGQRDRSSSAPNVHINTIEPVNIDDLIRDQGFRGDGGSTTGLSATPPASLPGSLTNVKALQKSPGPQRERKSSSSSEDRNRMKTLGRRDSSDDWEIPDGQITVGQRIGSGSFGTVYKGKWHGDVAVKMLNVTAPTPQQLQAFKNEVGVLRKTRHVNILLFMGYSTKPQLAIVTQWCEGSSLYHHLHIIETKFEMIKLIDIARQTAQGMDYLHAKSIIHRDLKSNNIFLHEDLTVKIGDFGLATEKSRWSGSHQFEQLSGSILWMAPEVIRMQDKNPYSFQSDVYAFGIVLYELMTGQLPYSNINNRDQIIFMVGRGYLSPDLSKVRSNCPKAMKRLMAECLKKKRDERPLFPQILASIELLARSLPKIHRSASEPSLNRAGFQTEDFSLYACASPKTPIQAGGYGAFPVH

**Q.** `Cc1ncc(NC(=O)c2ccc(C(O)CO)c(C(F)(F)F)c2)cc1-c1cc(N2CCOCC2)c2nccn2n1` (stereo not drawn) [Example 873, 4-(1,2-dihydroxyethyl)-N-(6-methyl-5-(8-morpholinoimidazo[1,2-b]pyridazin-6-yl)pyridin-3-yl)-3-(trifluoromethyl)benzamide] was tested. Which IC50 did it give?
**A.** 2.8 nM

**Q.** For `Cc1ncc(NC(=O)c2ccc(C#N)c(C(F)(F)F)c2)cc1-c1cc(N2CCOCC2)c2nccn2c1` [Example 877, 4-cyano-N-(6-methyl-5-(8-morpholinoimidazo[1,2-a]pyridin-6-yl)pyridin-3-yl)-3-(trifluoromethyl)benzamide], which IC50 is on record?
**A.** 6.5 nM

**Q.** How did the IC50 turn out when `Cc1ncc(NC(=O)c2ccnc(C(C)(C)O)c2)cc1-c1cc(N2CCOCC2)c2nccn2c1` [Example 878, 2-(2-hydroxypropan-2-yl)-N-(6-methyl-5-(8-morpholinoimidazo[1,2-a]pyridin-6-yl)pyridin-3-yl)isonicotinamide] was run?
**A.** 100 nM

**Q.** For `Cc1ncc(NC(=O)c2ccnc(C(C)(F)F)c2)cc1-c1cc(N2CCOCC2)c2nccn2c1` [Example 879, 2-(1,1-difluoroethyl)-N-(6-methyl-5-(8-morpholinoimidazo[1,2-a]pyridin-6-yl)pyridin-3-yl)isonicotinamide], which IC50 is on record?
**A.** 6.1 nM

**Q.** `Cc1ncc(NC(=O)c2cccc(C(F)F)c2)cc1-c1cc(N2CCOCC2)c2nccn2c1` [Example 880, 3-(difluoromethyl)-N-(6-methyl-5-(8-morpholinoimidazo[1,2-a]pyridin-6-yl)pyridin-3-yl)benzamide] was tested. Which IC50 did it give?
**A.** 3.2 nM

**Q.** With `Cc1ncc(NC(=O)c2ccnc(C(C)(C)C#N)c2)cc1-c1cc(N2CCOCC2)c2nccn2c1` [Example 881, 2-(2-cyanopropan-2-yl)-N-(6-methyl-5-(8-morpholinoimidazo[1,2-a]pyridin-6-yl)pyridin-3-yl)isonicotinamide] as the compound, how does the IC50 read?
**A.** 32.6 nM

**Q.** Which IC50 does the source give for `Cc1ncc(NC(=O)c2ccnc(C(C)C)c2)cc1-c1cc(N2CCOCC2)c2nccn2c1` [Example 882, 2-isopropyl-N-(6-methyl-5-(8-morpholinoimidazo[1,2-a]pyridin-6-yl)pyridin-3-yl)isonicotinamide] here?
**A.** 8.1 nM

**Q.** `Cc1ncc(NC(=O)c2cccc(C(F)(F)F)c2)cc1-c1cc(N2CCOCC2)c2nccn2c1` [Example 883, N-(6-methyl-5-(8-morpholinoimidazo[1,2-a]pyridin-6-yl)pyridin-3-yl)-3-(trifluoromethyl)benzamide] was tested. Which IC50 did it give?
**A.** 1.7 nM

**Q.** Which IC50 does the source give for `Cc1ncc(NC(=O)c2cccc(C(F)(F)F)c2)cc1-c1cc(N2CCOCC2)c2nccn2c1` [Example 884, N-(6-methyl-5-(8-morpholinoimidazo[1,2-a]pyridin-6-yl)pyridin-3-yl)-3-(trifluoromethyl)benzamide] here?
**A.** 19.7 nM

**Q.** How did the IC50 turn out when `Cc1ncc(NC(=O)c2cccc(C(F)(F)F)c2)cc1-c1nc2c(c(N3CCOCC3)n1)CS(=O)(=O)C2` [Example 886, N-(6-methyl-5-(4-morpholino-6,6-dioxido-5,7-dihydrothieno[3,4-d]pyrimidin-2-yl)pyridin-3-yl)-3-(trifluoromethyl)benzamide] was run?
**A.** 7.6 nM

**Q.** How did the IC50 turn out when `Cc1c(-c2nc3c(c(N4CCOCC4)n2)CS(=O)(=O)C3)cc(NC(=O)c2cccc(C(F)(F)F)c2)c[n+]1[O-]` [Example 887, 2-methyl-3-(4-morpholino-6,6-dioxido-5,7-dihydrothieno[3,4-d]pyrimidin-2-yl)-5-(3-(trifluoromethyl)benzamido)pyridine 1-oxide] was run?
**A.** 1300 nM

**Q.** Which IC50 does the source give for `Cc1ccc(C(=O)Nc2cccc(C(F)(F)F)c2)cc1-c1cc(N2CCOCC2)c2nccn2n1` [Example 888, 4-methyl-3-(8-morpholinoimidazo[1,2-b]pyridazin-6-yl)-N-(3-(trifluoromethyl)phenyl)benzamide] here?
**A.** 1.6 nM

**Q.** For `Cc1ccc(C(=O)Nc2cccc(C(F)(F)F)c2)cc1-c1nc2c(c(N3CCOCC3)n1)CNC2` [Example 889, 4-methyl-3-(4-morpholino-6,7-dihydro-5H-pyrrolo[3,4-d]pyrimidin-2-yl)-N-(3-(trifluoromethyl)phenyl)benzamide], which IC50 is on record?
**A.** 3.3 nM

**Q.** How did the IC50 turn out when `Cc1ccc(NC(=O)c2cnnc(C3(C#N)CC3)c2)cc1-c1cc(N2CCOCC2)n(C)c(=O)c1` [Example 899, 6-(1-cyanocyclopropyl)-N-(4-methyl-3-(1-methyl-6-morpholino-2-oxo-1,2-dihydropyridin-4-yl)phenyl)pyridazine-4-carboxamide] was run?
**A.** 1.87 nM

**Q.** How did the IC50 turn out when `Cc1ccc(NC(=O)c2cc(C(C)(C)C#N)ccn2)cc1-c1cc(N2CCOCC2)n(C)c(=O)c1` [Example 900, 4-(2-cyanopropan-2-yl)-N-(4-methyl-3-(1-methyl-6-morpholino-2-oxo-1,2-dihydropyridin-4-yl)phenyl)picolinamide] was run?
**A.** 3.17 nM

**Q.** `Cc1ccc(NC(=O)c2cncc(C(F)(F)F)c2)cc1-c1cc(N2CCOCC2)n(C)c(=O)c1` [Example 901, N-(4-methyl-3-(1-methyl-6-morpholino-2-oxo-1,2-dihydropyridin-4-yl)phenyl)-5-(trifluoromethyl)nicotinamide] was tested. Which IC50 did it give?
**A.** 0.85 nM

**Q.** `Cc1ccc(NC(=O)c2cnnc(C3(C#N)CC3)c2)cc1-c1cc(N2CCOCC2)c(=O)n(C)c1` [Example 902, 6-(1-cyanocyclopropyl)-N-(4-methyl-3-(1-methyl-5-morpholino-6-oxo-1,6-dihydropyridin-3-yl)phenyl)pyridazine-4-carboxamide] was tested. Which IC50 did it give?
**A.** 3.37 nM

**Q.** For `Cc1ccc(NC(=O)c2cc(C(C)(C)C#N)ccn2)cc1-c1cc(N2CCOCC2)c(=O)n(C)c1` [Example 903, 4-(2-cyanopropan-2-yl)-N-(4-methyl-3-(1-methyl-5-morpholino-6-oxo-1,6-dihydropyridin-3-yl)phenyl)picolinamide], which IC50 is on record?
**A.** 3.64 nM

**Q.** How did the IC50 turn out when `Cc1ccc(NC(=O)c2cncc(C(F)(F)F)c2)cc1-c1cc(N2CCOCC2)c(=O)n(C)c1` [Example 904, N-(4-methyl-3-(1-methyl-5-morpholino-6-oxo-1,6-dihydropyridin-3-yl)phenyl)-5-(trifluoromethyl)nicotinamide] was run?
**A.** 2.01 nM

**Q.** With `Cc1ccc(NC(=O)c2cc(C(C)(F)F)ccn2)cc1-c1cc(N2CCOCC2)c(=O)n(C)c1` [Example 905, 4-(1,1-difluoroethyl)-N-(4-methyl-3-(1-methyl-5-morpholino-6-oxo-1,6-dihydropyridin-3-yl)phenyl)picolinamide] as the compound, how does the IC50 read?
**A.** 2.33 nM

**Q.** `Cc1ccc(NC(=O)c2cc(C(C)(C)O)ccn2)cc1-c1cc(N2CCOCC2)c(=O)n(C)c1` [Example 906, 4-(2-hydroxypropan-2-yl)-N-(4-methyl-3-(1-methyl-5-morpholino-6-oxo-1,6-dihydropyridin-3-yl)phenyl)picolinamide] was tested. Which IC50 did it give?
**A.** 9.45 nM

**Q.** `Cc1ccc(NC(=O)c2cc(C(C)(C)F)ccn2)cc1-c1cc(N2CCOCC2)c(=O)n(C)c1` [Example 907, 4-(2-fluoropropan-2-yl)-N-(4-methyl-3-(1-methyl-5-morpholino-6-oxo-1,6-dihydropyridin-3-yl)phenyl)picolinamide] was tested. Which IC50 did it give?
**A.** 4.43 nM

**Q.** How did the IC50 turn out when `Cc1ccc(NC(=O)c2cncc(C(F)(F)F)c2)cc1-c1cc(N2CCOCC2)c(=O)n(C)n1` [Example 909, N-(4-methyl-3-(1-methyl-5-morpholino-6-oxo-1,6-dihydropyridazin-3-yl)phenyl)-5-(trifluoromethyl)nicotinamide] was run?
**A.** 1.56 nM

**Q.** Which IC50 does the source give for `Cc1ccc(NC(=O)c2cc(C(C)(C)C#N)ccn2)cc1-c1cc(N2CCOCC2)c(=O)n(C)n1` [Example 910, 4-(2-cyanopropan-2-yl)-N-(4-methyl-3-(1-methyl-5-morpholino-6-oxo-1,6-dihydropyridazin-3-yl)phenyl)picolinamide] here?
**A.** 5.09 nM

**Q.** Which IC50 does the source give for `Cc1ncc(NC(=O)c2ccnc(C(C)(C)F)c2)cc1-c1cc(N2CCOCC2)c(OC(C)C)nn1` [Example 911, 2-(2-fluoropropan-2-yl)-N-(5-(6-isopropoxy-5-morpholinopyridazin-3-yl)-6-methylpyridin-3-yl)isonicotinamide] here?
**A.** 3.58 nM

**Q.** How did the IC50 turn out when `Cc1ncc(NC(=O)c2ccnc(C(C)(F)F)c2)cc1-c1cc(N2CCOCC2)c(OC(C)C)nn1` [Example 912, 2-(1,1-difluoroethyl)-N-(5-(6-isopropoxy-5-morpholinopyridazin-3-yl)-6-methylpyridin-3-yl)isonicotinamide] was run?
**A.** 2.25 nM

**Q.** With `Cc1ncc(NC(=O)c2ccnc(C(F)F)c2)cc1-c1cc(N2CCOCC2)c(OC(C)C)nn1` [Example 913, 2-(difluoromethyl)-N-(5-(6-isopropoxy-5-morpholinopyridazin-3-yl)-6-methylpyridin-3-yl)isonicotinamide] as the compound, how does the IC50 read?
**A.** 2.16 nM

**Q.** With `CCC(F)(F)c1cc(C(=O)Nc2cnc(C)c(-c3cc(N4CCOCC4)c(OCC(F)F)nn3)c2)ccn1` [Example 914, N-(5-(6-(2,2-difluoroethoxy)-5-morpholinopyridazin-3-yl)-6-methylpyridin-3-yl)-2-(1,1-difluoropropyl)isonicotinamide] as the compound, how does the IC50 read?
**A.** 1.95 nM

**Q.** Which IC50 does the source give for `Cc1ncc(NC(=O)c2ccnc(C(C)(F)F)c2)cc1-c1cc(N2CCOCC2)c(OCC(F)F)nn1` [Example 915, N-(5-(6-(2,2-difluoroethoxy)-5-morpholinopyridazin-3-yl)-6-methylpyridin-3-yl)-2-(1,1-difluoroethyl)isonicotinamide] here?
**A.** 1.11 nM

**Q.** Which IC50 does the source give for `Cc1ncc(NC(=O)c2cc(C(F)(F)F)ccn2)cc1-c1cc(N2CCOCC2)c(OCC(F)F)nn1` [Example 916, N-(5-(6-(2,2-difluoroethoxy)-5-morpholinopyridazin-3-yl)-6-methylpyridin-3-yl)-4-(trifluoromethyl)picolinamide] here?
**A.** 1.31 nM

**Q.** With `Cc1ncc(NC(=O)c2cncc(C(F)(F)F)c2)cc1-c1cc(N2CCOCC2)c(OCC(F)F)nn1` [Example 917, N-(5-(6-(2,2-difluoroethoxy)-5-morpholinopyridazin-3-yl)-6-methylpyridin-3-yl)-5-(trifluoromethyl)nicotinamide] as the compound, how does the IC50 read?
**A.** 0.8 nM

**Q.** For `Cc1ncc(NC(=O)c2cccc(C(F)(F)F)c2)cc1-c1cc(N2CCOCC2)c(OCC(F)F)nn1` [Example 918, N-(5-(6-(2,2-difluoroethoxy)-5-morpholinopyridazin-3-yl)-6-methylpyridin-3-yl)-3-(trifluoromethyl)benzamide], which IC50 is on record?
**A.** 1.17 nM

**Q.** `Cc1ncc(NC(=O)c2cccc(C(F)(F)F)c2)cc1-c1cc(N2CCOCC2)c(S(C)(=O)=O)nn1` [Example 919, N-(6-methyl-5-(6-(methylsulfonyl)-5-morpholinopyridazin-3-yl)pyridin-3-yl)-3-(trifluoromethyl)benzamide] was tested. Which IC50 did it give?
**A.** 4.11 nM
